Data taken from the supplement of paper PMC10307832.

Legend:
Assay in all cases: relative viability (nuclei count vs DMSO), 5 days (fraction); higher = more cells survive
[1] = compound: CC1=CC=C(C=C1)C(=O)CN2C3=C(CCCC3)SC2=N [Pifithrin_alpha] + N=C(N)NC(=N)NCCc1ccccc1 [Phenformin] (partner 250 µM)
How it was run: (§1)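 Each reported value is a median over duplicate plates. It expresses relative viability: treated-well nuclei count divided by vehicle-well nuclei count. Lung cancer cell lines in 1536-well plates were dosed by pin tool a day after seeding, alone with one drug or with a fixed anchor-drug dose plus five library-drug doses (not always all listed) in √10 steps, and nuclei were counted after 5 days.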

[2] = compound: CC1=CC=C(C=C1)C(=O)CN2C3=C(CCCC3)SC2=N [Pifithrin_alpha] + CC(C)C[C@H](NC(=O)[C@H](Cc1ccccc1)NC(=O)c1cnccn1)B(O)O [Bortezomib] (partner 0.002 µM)
How it was run: as §1

[3] = compound: CC1=CC=C(C=C1)C(=O)CN2C3=C(CCCC3)SC2=N [Pifithrin_alpha] + CC(=O)c1c(C)c2cnc(Nc3ccc(N4CCNCC4)cn3)nc2n(C2CCCC2)c1=O [Palbociclib] (partner 0.5 µM)
How it was run: as §1

Bemcentinib + AZD7762 = compound: Nc1nc(Nc2ccc3c(c2)CC[C@@H](N2CCCC2)CC3)nn1-c1cc2c(nn1)-c1ccccc1CCC2 [Bemcentinib] + NC(=O)Nc1cc(-c2cccc(F)c2)sc1C(=O)N[C@H]1CCCNC1 [AZD7762] (partner 0.2 µM)
How it was run: as §1

NCI-H650
relative viability ([1]; first compound 3.162 µM): 0.49 | relative viability ([1]; first compound 10 µM): 0.454 | relative viability ([1]; first compound 31.62 µM): 0.421 | relative viability ([1]; first compound 100 µM): 0.421 | relative viability ([2]; first compound 3.162 µM): 1 | relative viability ([2]; first compound 10 µM): 0.804 | relative viability ([2]; first compound 31.62 µM): 0.51 | relative viability ([2]; first compound 100 µM): 0.725 | relative viability ([3]; first compound 3.162 µM): 0.371 | relative viability ([3]; first compound 10 µM): 0.328 | relative viability ([3]; first compound 31.62 µM): 0.204 | relative viability ([3]; first compound 100 µM): 0.327 | relative viability (Bemcentinib + AZD7762; first compound 0.04 µM): 0.956 | relative viability (Bemcentinib + AZD7762; first compound 0.1265 µM): 0.964 | relative viability (Bemcentinib + AZD7762; first compound 0.4 µM): 1.15 | relative viability (Bemcentinib + AZD7762; first compound 1.265 µM): 0.886 | relative viability (Bemcentinib + AZD7762; first compound 4 µM): 1.17
